According to patent US8022091B2, “Triazole derivative” (Taisho Pharmaceutical Co., Ltd., priority 2006, dated 2011):
pIC50: −log10 of the molar value.

Key:
human Edg-1 (S1P1) = target: T1, human Edg-1 (S1P1) (Homo sapiens, UniProt P21453); assay: S1P1 binding assay: inhibition of [33P]-S1P binding to membrane fraction of HEK-293 cells transferred with the human Edg-1 (S1P1) gene; conditions: for pIC50: [33P]-S1P 0.1 nM, human Edg-1 (S1P1) HEK-293 membrane fraction, 1 h at 30° C., read-out: IC50 (concentration at which binding in the absence of the test compound was inhibited by 50%)
T1 construct: expressed in transfected cells; host or cells: HEK-293
T1 sequence (P21453 whole entry): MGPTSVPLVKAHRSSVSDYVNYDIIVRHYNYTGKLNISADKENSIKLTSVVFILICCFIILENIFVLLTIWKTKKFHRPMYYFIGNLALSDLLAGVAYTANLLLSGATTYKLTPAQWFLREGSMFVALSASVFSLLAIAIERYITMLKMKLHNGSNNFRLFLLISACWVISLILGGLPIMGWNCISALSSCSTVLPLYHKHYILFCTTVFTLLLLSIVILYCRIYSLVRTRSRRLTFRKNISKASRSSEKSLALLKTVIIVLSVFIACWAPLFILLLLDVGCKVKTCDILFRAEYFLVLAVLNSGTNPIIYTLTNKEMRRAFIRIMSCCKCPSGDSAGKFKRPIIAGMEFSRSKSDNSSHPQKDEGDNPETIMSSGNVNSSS
Summary of the method: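 With 0.1 nM [33P]-S1P and compound (10^−5M single point, or a concentration range for IC50) in 0.1% DMSO, membrane fractions from human Edg-1-expressing HEK-293 cells were treated for one hour at 30° C in 20 mM Tris-HCl pH 7.4 with NaF, deoxypyridoxine and BSA. Bound label was measured after filtration, with untransfected-cell background subtracted.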

[1] = test compound at 10 μM, inhibition of [33P]-S1P binding to the membrane fraction of HEK-293 cells expressing human Edg-1 (S1P1)
[2] = test compound 10 μM, inhibition of [33P]-S1P binding, membrane fraction

CCN(CC)c1cccc(Oc2nnc([C@@H](C)NS(=O)(=O)c3ccc(Cl)c(Cl)c3)n2CC)c1 [Compound 70]
pIC50 (human Edg-1 (S1P1)): ≥ 8.00 | inhibition at 10 µM (human Edg-1 (S1P1); [1]): 96.5% | melting point: 144 to 146 °C

CCn1c(Oc2cccc(N3C[C@@H](C)O[C@@H](C)C3)c2)nnc1[C@@H](C)NS(=O)(=O)c1ccc(Cl)c(Cl)c1 [Compound 76]
pIC50 (human Edg-1 (S1P1)): ≥ 7.46 | inhibition at 10 µM (human Edg-1 (S1P1); [1]): 99.2% | melting point: 151.5 to 153.5 °C

CCn1c(Oc2ccc(-n3cccc3)cc2)nnc1[C@@H](C)NS(=O)(=O)c1ccc(Cl)c(Cl)c1 [Compound 27]
inhibition at 10 µM (human Edg-1 (S1P1); [1]): 100% | melting point: 163 to 168 °C

CCn1c(Oc2cccc(NS(C)(=O)=O)c2)nnc1[C@@H](C)NS(=O)(=O)c1ccc2ccccc2c1 [Compound 147]
pIC50 (human Edg-1 (S1P1)): ≥ 8.00 | inhibition at 10 µM (human Edg-1 (S1P1); [1]): 103% | melting point: 141 to 143 °C

CCn1c(Oc2ccc(C)cn2)nnc1[C@@H](C)NS(=O)(=O)c1ccc(Cl)c(Cl)c1 [Compound 67]
inhibition at 10 µM (human Edg-1 (S1P1); [1]): 95.5% | melting point: 182 to 188 °C

CCn1c(Oc2ccc(C)cc2)nnc1[C@H](C)NS(=O)(=O)c1ccc(Cl)c(Cl)c1 [Compound 62]
inhibition at 10 µM (human Edg-1 (S1P1); [1]): 83.5% | melting point: 186 to 188.5 °C

CCn1c(Oc2cc(C(C)C)n(C)n2)nnc1[C@@H](C)NS(=O)(=O)c1ccc(Cl)c(Cl)c1 [Compound 99]
pIC50 (human Edg-1 (S1P1)): 7.60 | inhibition at 10 µM (human Edg-1 (S1P1); [1]): 102% | melting point: 103 to 105.5 °C

CCn1c(Oc2ccc3cc[nH]c3c2)nnc1[C@@H](C)NS(=O)(=O)c1ccc(C(F)(F)F)cc1 [Compound 136]
pIC50 (human Edg-1 (S1P1)): 8.09 | inhibition at 10 µM (human Edg-1 (S1P1); [1]): 96.5% | melting point: 100 to 106 °C

CCn1c(Oc2ccc(C3CCCCC3)cc2)nnc1[C@@H](C)NS(=O)(=O)c1ccc(Cl)c(Cl)c1 [Compound 15]
pIC50 (human Edg-1 (S1P1)): 7.49 | inhibition at 10 µM (human Edg-1 (S1P1); [1]): 103% | melting point: 200 to 205 °C

CCn1c(Oc2ccc(F)c(F)c2)nnc1[C@@H](C)NS(=O)(=O)c1ccc(Cl)c(Cl)c1 [Compound 44]
inhibition at 10 µM (human Edg-1 (S1P1); [1]): 100% | melting point: 140 to 145.5 °C

CCn1c(Oc2cccc(N3CCN(C(C)C)CC3)c2)nnc1[C@@H](C)NS(=O)(=O)c1ccc2c(Cl)cccc2c1 [Compound 663]
pIC50 (human Edg-1 (S1P1)): ≥ 8.00 | inhibition at 10 µM (human Edg-1 (S1P1); [2]): 99.5% | melting point: 210 to 217 °C

CCn1c(Oc2ccc(F)cc2)nnc1[C@@H](C)N(CC(=O)O)S(=O)(=O)c1ccc(Cl)c(Cl)c1 [Compound 684]
melting point: 169.5 to 171.5 °C

CCn1c([C@@H](C)NS(=O)(=O)c2ccc(Cl)c(Cl)c2)nnc1S(=O)(=O)c1ccc(C)cc1 [Compound 57, 3,4-Dichloro-N-[(R)-1-[4-ethyl-5(4-methylbenzenesulfonyl)-4H-[1,2,4]triazol-3-yl]-ethyl]-benzenesulfonamide]
melting point: 164 to 165 °C

CCn1c(Oc2cccc(N3CCN(C)CC3)c2)nnc1[C@@H](C)NS(=O)(=O)c1cc(Br)cc(C(F)(F)F)c1 [Compound 658]
inhibition at 10 µM (human Edg-1 (S1P1); [2]): 80.4%

CCn1c(Oc2cccc(N3CCN(C)CC3)c2)nnc1[C@@H](C)NS(=O)(=O)c1c(Cl)cc(Br)cc1Cl [Compound 617]
inhibition at 10 µM (human Edg-1 (S1P1); [2]): 77.5%

CCn1c(Oc2cccc(N3CCN(C)CC3)c2)nnc1[C@@H](C)NS(=O)(=O)c1ccc(F)c2ccccc12 [Compound 648]
inhibition at 10 µM (human Edg-1 (S1P1); [2]): 108%

CCn1c(Oc2cccc(N3CCN(C)CC3)c2)nnc1[C@@H](C)NS(=O)(=O)c1sc(C)nc1C [Compound 631]
inhibition at 10 µM (human Edg-1 (S1P1); [2]): 95.2%

CCn1c(Oc2ccc3cc[nH]c3c2)nnc1[C@@H](C)NS(=O)(=O)c1cc(F)c(Br)cc1F [Compound 387]
inhibition at 10 µM (human Edg-1 (S1P1); [1]): 63.5%

CCn1c(Oc2ccc(F)cc2)nnc1[C@@H](C)NS(=O)(=O)c1c(C)cc(Cl)cc1Cl [Compound 255]
inhibition at 10 µM (human Edg-1 (S1P1); [1]): 86.4%

CCn1c(Oc2cccc(N3CCN(C)CC3)c2)nnc1[C@@H](C)NS(=O)(=O)c1c(C)c(C)cc(C)c1C [Compound 549]
inhibition at 10 µM (human Edg-1 (S1P1); [2]): 89.2%

CCn1c(Oc2ccc3cc[nH]c3c2)nnc1[C@@H](C)NS(=O)(=O)c1cccc(Cl)c1F [Compound 452]
inhibition at 10 µM (human Edg-1 (S1P1); [2]): 68.9%

CCn1c(Oc2cccc(N3CCN(C)CC3)c2)nnc1[C@@H](C)NS(=O)(=O)c1ccc(Br)cc1F [Compound 582]
inhibition at 10 µM (human Edg-1 (S1P1); [2]): 106%

CCn1c(Oc2ccc(F)cc2)nnc1[C@@H](C)NS(=O)(=O)c1cccc(C(F)(F)F)c1 [Compound 188]
inhibition at 10 µM (human Edg-1 (S1P1); [1]): 107%

CCn1c(Oc2ccc(F)cc2)nnc1[C@@H](C)NS(=O)(=O)c1ccc(Br)cc1Cl [Compound 276]
inhibition at 10 µM (human Edg-1 (S1P1); [1]): 94.4%

CCn1c(Oc2ccc(F)cc2)nnc1[C@@H](C)NS(=O)(=O)c1cccc(Cl)c1 [Compound 231]
inhibition at 10 µM (human Edg-1 (S1P1); [1]): 65.1%

CCn1c(Oc2ccc3cc[nH]c3c2)nnc1[C@@H](C)NS(=O)(=O)c1cc(Cl)ccc1OC [Compound 425]
inhibition at 10 µM (human Edg-1 (S1P1); [2]): 90.1%

CCn1c(Oc2ccc3cc[nH]c3c2)nnc1[C@@H](C)NS(=O)(=O)c1cc(C(F)(F)F)ccc1Cl [Compound 422]
inhibition at 10 µM (human Edg-1 (S1P1); [2]): 83.1%

CCn1c(Oc2cccc(N3CCN(C)CC3)c2)nnc1[C@@H](C)NS(=O)(=O)c1cc(C)ccc1C [Compound 537]
inhibition at 10 µM (human Edg-1 (S1P1); [2]): 96.7%

CCn1c(Oc2cccc(N3CCN(C)CC3)c2)nnc1[C@@H](C)NS(=O)(=O)c1c(C)cc(Cl)cc1Cl [Compound 595]
inhibition at 10 µM (human Edg-1 (S1P1); [2]): 93.7%

CCc1ccc(S(=O)(=O)N[C@H](C)c2nnc(Oc3cccc(N4CCN(C)CC4)c3)n2CC)cc1 [Compound 515]
inhibition at 10 µM (human Edg-1 (S1P1); [2]): 109%

CCn1c(Oc2ccc3cc[nH]c3c2)nnc1[C@@H](C)NS(=O)(=O)c1ccc(F)c(F)c1 [Compound 413]
inhibition at 10 µM (human Edg-1 (S1P1); [2]): 95.3%

CCn1c(Oc2cccc(N3CCC4(CC3)OCCO4)c2)nnc1[C@@H](C)NS(=O)(=O)c1ccc(Cl)c(Cl)c1 [Compound 87, 3,4-Dichloro-N-((R)-1-[5-[3-(1,4-dioxa-8-aza-spiro[4.5]decan-8-yl)-phenoxy]-4-ethyl-4H-[1,2,4]triazol-3-yl]-ethyl)-benzenesulfonamide]
pIC50 (human Edg-1 (S1P1)): ≥ 8.00 | inhibition at 10 µM (human Edg-1 (S1P1); [1]): 99.9%

CCn1c(Oc2ccc3cc[nH]c3c2)nnc1[C@@H](C)NS(=O)(=O)c1sc2ccc(Cl)cc2c1C [Compound 339]
inhibition at 10 µM (human Edg-1 (S1P1); [1]): 62.8%

CCn1c(Oc2cccc(N3CCN(C)CC3)c2)nnc1[C@@H](C)NS(=O)(=O)c1cccc(C(F)(F)F)c1 [Compound 530]
inhibition at 10 µM (human Edg-1 (S1P1); [2]): 115%

CCn1c(Oc2ccc(F)cc2)nnc1[C@@H](C)NS(=O)(=O)c1cccc(Cl)c1C [Compound 214]
inhibition at 10 µM (human Edg-1 (S1P1); [1]): 102%

CCn1c(Oc2ccc3cc[nH]c3c2)nnc1[C@@H](C)NS(=O)(=O)c1ccc(Br)cc1C [Compound 407]
inhibition at 10 µM (human Edg-1 (S1P1); [2]): 68.2%

CCn1c(Oc2ccc3cc[nH]c3c2)nnc1[C@@H](C)NS(=O)(=O)c1cc(C)ccc1OC [Compound 393]
inhibition at 10 µM (human Edg-1 (S1P1); [1]): 79.7%

CCn1c(Oc2ccc3cc[nH]c3c2)nnc1[C@@H](C)NS(=O)(=O)c1cc(Br)ccc1OC [Compound 389]
inhibition at 10 µM (human Edg-1 (S1P1); [1]): 88%

CCn1c(Oc2ccc(F)cc2)nnc1C(NS(=O)(=O)c1ccc(Cl)c(Cl)c1)C(F)(F)F (stereo not drawn) [Compound 687, 3,4-Dichloro-N-[1-[4-ethyl-5-(4-fluorophenoxy)-4H-[1,2,4]triazol-3-yl]-2,2,2-trifluoroethyl]-benzenesulfonamide]
inhibition at 10 µM (human Edg-1 (S1P1); [2]): 80.1%

CCn1c(Oc2ccc3cc[nH]c3c2)nnc1[C@@H](C)NS(=O)(=O)c1ccccc1C#N [Compound 336]
inhibition at 10 µM (human Edg-1 (S1P1); [1]): 56.8%

CCn1c(Oc2cccc(N3CCN(C)CC3)c2)nnc1[C@@H](C)NS(=O)(=O)c1c(Cl)cccc1Cl [Compound 512]
inhibition at 10 µM (human Edg-1 (S1P1); [2]): 60.7%

CCn1c(Oc2cccc(N3CCN(C)CC3)c2)nnc1[C@@H](C)NS(=O)(=O)c1ccc2c(c1)CCO2 [Compound 672]
inhibition at 10 µM (human Edg-1 (S1P1); [2]): 103%

CCn1c(Oc2ccc(F)cc2)nnc1[C@@H](C)NS(=O)(=O)c1ccc(Cl)c(Cl)c1Cl [Compound 207]
inhibition at 10 µM (human Edg-1 (S1P1); [1]): 108%

CCn1c(Oc2ccc(F)cc2)nnc1[C@@H](C)NS(=O)(=O)c1ccc(OC(F)F)cc1 [Compound 263]
inhibition at 10 µM (human Edg-1 (S1P1); [1]): 82.6%

CCn1c(Oc2cccc(N3CCN(C)CC3)c2)nnc1[C@@H](C)NS(=O)(=O)c1c(C)cc(C)cc1C [Compound 517]
inhibition at 10 µM (human Edg-1 (S1P1); [2]): 69.6%

CCn1c(Oc2cccc(N3CCN(C)CC3)c2)nnc1[C@@H](C)NS(=O)(=O)c1cccc(Cl)c1C [Compound 555]
inhibition at 10 µM (human Edg-1 (S1P1); [2]): 102%

CCn1c(Oc2cccc(N3CCN(C)CC3)c2)nnc1[C@@H](C)NS(=O)(=O)c1csc2ccccc12 [Compound 662]
inhibition at 10 µM (human Edg-1 (S1P1); [2]): 95.4%

CCCc1ccc(S(=O)(=O)N[C@H](C)c2nnc(Oc3cccc(N4CCN(C)CC4)c3)n2CC)cc1 [Compound 548]
inhibition at 10 µM (human Edg-1 (S1P1); [2]): 96.7%

CCn1c(Oc2cccc(N3CCN(C)CC3)c2)nnc1[C@@H](C)NS(=O)(=O)c1ccc(Cl)c(S(N)(=O)=O)c1 [Compound 654]
inhibition at 10 µM (human Edg-1 (S1P1); [2]): 71.7%

CCn1c(Oc2ccc(F)cc2)nnc1[C@@H](C)NS(=O)(=O)c1ccc(C(=O)OC)n1C [Compound 201]
inhibition at 10 µM (human Edg-1 (S1P1); [1]): 84.3%
